# Assay results: PubChem BioAssay AID1845207 (Molecular Pharmacology Branch, DTP, NCI, 2023)
# Tested on: NCI-H1876 tumor spheroid viability
# Experiment: Anticancer human tumor NCI-H1876 cell line growth inhibition;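 also: spheroids exposed to compounds for seven days before the viability read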;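 as to viability, T/C: percent of DMSO vehicle control viability so 100% = vehicle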
# Settings: spheroids with HUVEC and MSC; for IC50: curve of first compound; for viability, T/C: stronger effect = lower value
# Description: Multicellular complex tumor spheroid response to DNA repair inhibitors in combination with DNA-damaging drugs
# This study explores the anticancer activities of DNA-damaging drugs and inhibitors of DNA damage repair, both as single agents and in combinations. Complex tumor spheroids comprised of malignant cells, endothelial cells and mesenchymal stem cells served as an in vitro model for human solid tumors. This model system incorporates physiologically relevant features and patient-derived or established malignant cell lines with clinically relevant genetic alterations from many tumor types. Twenty-six patient-derived or established malignant cell lines were evaluated representing sarcoma, melanoma, small cell lung cancer (SCLC), non-small cell lung cancer (NSCLC), as well as bladder, ovarian and pancreatic cancers. The concentration ranges selected for each drug and investigational agent were based upon clinically achievable concentrations if the clinical Cmax of the agent was known.
# Compounds. The drugs and compounds olaparib (NSC753686), talazoparib (NSC767125), berzosertib (NSC777718), elimusertib (NSC800525), nedisertib (NSC802822), VX-984 (NSC792969), AZD-1390 (NSC803789), temozolomide (NSC362856), topotecan (NSC609699), trabectedin (NSC813783), staurosporine (NSC755774), and gemcitabine (NSC613327) were obtained from the National Cancer Institute (NCI) Developmental Therapeutics Program Chemical Repository. The FDA-approved anticancer drug set is available from the Developmental Therapeutics Program at https://dtp.cancer.gov/organization/dscb/obtaining/available_plates.htm. […] The stock solutions were prepared in dimethyl sulfoxide (DMSO, Sigma-Aldrich, St. Louis, MO, cat. D2650) at 400-fold the tested concentration and stored at -70 degrees C. Prior to their use, the stock solutions were diluted in fresh medium and the final DMSO concentration in the assay was 0.25% (v/v). All drugs and investigational agents were tested over a range starting from a high concentration at or near the clinical Cmax and decreasing in half-log increments. If the clinical Cmax for an agent had not been determined, the highest concentration tested was 10 microM.
# Cell Lines. The patient-derived cancer cell (PDC) lines: 156681-154-R-J1-PDC, 283228-195-R-J1-PDC, 287954-098-R-J1-PDC, 292921-168-R-J2-PDC, 349418-098-R-PDC, 425362-245-T-J1-PDC, 556581-035-R-J1-PDC, and BL0293-F563-PDC were received from the NCI Patient-Derived Models Repository (PDMR, https://pdmr.cancer.gov). The established cell lines HS-SY-2 (RRID:CVCL_8719), MPNST, and SYO-1 (RRID:CVCL_7146) were obtained from the Sloan Kettering Institute. The alveolar soft parts sarcoma cell line ASPS-1 (RRID:CVCL_S738) was established at the NCI and grown from internal seed stocks. The following established cell lines were purchased from the American Type Culture Collection (ATCC, Manassas, VA): G-401 (ATCC, cat. CRL-1441, RRID:CVCL_0270), SW982 (ATCC, cat. HTB-93, RRID:CVCL_1734), VA-ES-BJ (ATCC, cat. CRL-2138, RRID:CVCL_1785), NCI-H719 (ATCC, cat. CRL-5837, RRID:CVCL_1582), NCI-H196 (ATCC, cat. CRL-5823, RRID:CVCL_1509), NCI-H841 (ATCC, cat. CRL-5845, RRID:CVCL_1595), NCI-H1618 (ATCC, cat. CRL-5879, RRID:CVCL_1480), NCI-H1876 (ATCC, cat. CRL-5902, RRID:CVCL_1503), DMS 114 (ATCC, cat. CRL-2066; RRID:CVCL_1174), NCI-H211 (ATCC, cat. CRL-5824; RRID:CVCL_1529), and SW 1271 (ATCC, cat. CRL-2177, RRID:CVCL_1716). The small cell lung cancer cell line COR-L88 was purchased from Sigma-Aldrich (cat. 92031917-1VL, RRID:CVCL_1141). The non-small cell lung cancer cell lines NCI-H226 (RRID:CVCL_1544) and NCI-H322M (RRID:CVCL_1557) were established at the NCI and grown from internal seed stocks. Pooled donor human umbilical vein endothelial cells (HUVEC, Lonza, cat. CC-2519) and human mesenchymal stem cells (hMSC, Lonza, cat. PT-2501) were purchased from Lonza (Walkersville, MD).
# Cell Culture. All cells were maintained in an incubator at 37 degrees C and 5% CO2 with 95% humidity. […]
structure (smiles),measurement,setting,value
Cc1cc(C)c(CNC(=O)c2cc(-c3ccc(CN4CCOCC4)cc3)cc3c2cnn3C2CCCC2)c(=O)[nH]1 + CC[C@@]1(O)C(=O)OCc2c1cc1n(c2=O)Cc2cc3c(CN(C)C)c(O)ccc3nc2-1,IC50,second compound 0.003 µM,509 nM
same,IC50,second compound 0.00949 µM,< 31.6 nM
same,IC50,second compound 0.03 µM,< 31.6 nM
same,IC50,second compound 0.0949 µM,< 31.6 nM
same,IC50,second compound 0.3 µM,< 31.6 nM
same,"viability, T/C","second compound 0.003 µM, first compound 0.0316 µM",78.6%
same,"viability, T/C","second compound 0.003 µM, first compound 0.1 µM",70%
same,"viability, T/C","second compound 0.003 µM, first compound 0.316 µM",56.6%
same,"viability, T/C","second compound 0.003 µM, first compound 1 µM",39%
same,"viability, T/C","second compound 0.003 µM, first compound 3.16 µM",27.7%
same,"viability, T/C","second compound 0.003 µM, first compound 10 µM",10.5%
same,"viability, T/C","second compound 0.00949 µM, first compound 0.0316 µM",40.9%
same,"viability, T/C","second compound 0.00949 µM, first compound 0.1 µM",39.6%
same,"viability, T/C","second compound 0.00949 µM, first compound 0.316 µM",35.1%
same,"viability, T/C","second compound 0.00949 µM, first compound 1 µM",26.2%
same,"viability, T/C","second compound 0.00949 µM, first compound 3.16 µM",22%
same,"viability, T/C","second compound 0.00949 µM, first compound 10 µM",10.5%
same,"viability, T/C","second compound 0.03 µM, first compound 0.0316 µM",15.6%
same,"viability, T/C","second compound 0.03 µM, first compound 0.1 µM",15.2%
same,"viability, T/C","second compound 0.03 µM, first compound 0.316 µM",17.6%
same,"viability, T/C","second compound 0.03 µM, first compound 1 µM",17.8%
same,"viability, T/C","second compound 0.03 µM, first compound 3.16 µM",16.5%
same,"viability, T/C","second compound 0.03 µM, first compound 10 µM",9.6%
same,"viability, T/C","second compound 0.0949 µM, first compound 0.0316 µM",8.57%
same,"viability, T/C","second compound 0.0949 µM, first compound 0.1 µM",9.17%
same,"viability, T/C","second compound 0.0949 µM, first compound 0.316 µM",10.2%
same,"viability, T/C","second compound 0.0949 µM, first compound 1 µM",12.2%
same,"viability, T/C","second compound 0.0949 µM, first compound 3.16 µM",12%
same,"viability, T/C","second compound 0.0949 µM, first compound 10 µM",11.9%
same,"viability, T/C","second compound 0.3 µM, first compound 0.0316 µM",3.79%
same,"viability, T/C","second compound 0.3 µM, first compound 0.1 µM",4.57%
same,"viability, T/C","second compound 0.3 µM, first compound 0.316 µM",4.59%
same,"viability, T/C","second compound 0.3 µM, first compound 1 µM",6.24%
same,"viability, T/C","second compound 0.3 µM, first compound 3.16 µM",7.93%
same,"viability, T/C","second compound 0.3 µM, first compound 10 µM",7.45%
